Data published in US20240052316A1, “STEM CELL PRIMING COMPOSITION AND PRIMED STEM CELL” (SCM LIFESCIENCE CO., LTD., priority 2020, published 2024).

Test system: IDO and TSG6
Assay: qRT-PCR of IDO and TSG6 expression in primed mesenchymal stem cells (joint statements)
Assay type: cell-based
Details: 24 hours; for expression of IDO and TSG6 compared to untreated control group 0: Table 1 groups, FIG. 4; for lowest effective concentration capable of inducing significantly increased expression of both TSG6 and IDO: tested 5, 10, 20 ng/ml (TNF-α, IFN-γ) and 10, 20, 40 ng/ml (IFN-α), FIGS. 1-3
Procedure: In a 37° C. and 5% CO2 incubator, mesenchymal stem cells in a storage state (LN2 tank storage) were thawed and cultured, and at this time, the cells were cultured in a medium (DMEM, alpha-MEM) containing 10% FBS or 4% hPL until proliferated to a cell confluence of about 80%. The cultured mesenchymal stem cells were seeded in a 100 mm dish, and treated with candidate substances for reinforcing the functions of the mesenchymal stem cells for 24 hours, and then the concentrations of primary candidate substances for reinforcing the functions were set.
TNF-α and IFN-γIFN-α were selected as the primary candidate substances, and in order to confirm the lowest effective concentration capable of increasing the expression of TNFα-stimulated gene-6 (TSG6) and indoleamine 2,3-dioxygenase (IDO) to confirm the reinforced functions, the stem cells were treated with 5, 10, and 20 ng/ml of TNF-α, 5, 10, and 20 ng/ml of IFN-γ, and 10, 20, and 40 ng/ml of IFN-α, respectively, and changes in expression of TSG6 and IDO were confirmed.
The IDO was known as an immunomodulatory factor that inhibited the proliferation of immune cells such as T cells by converting tryptophan, which was essential for T cell proliferation, into kynurenine, and the TSG6 was known as an anti-inflammatory regulator secreted by mesenchymal stem cells. After culturing the stem cells, total RNA was isolated using TRIzol (Invitrogen), and then cDNA was synthesized from total RNA using PrimeScriptTMRT reagent Kit with gDNA Eraser (TaKaRa), and qRT-PCR was performed. The results of TSG6 and IDO according to the concentration of each candidate substance were illustrated in FIGS. 1, 2 and 3.
Through Example 1, candidate substances and concentration combinations thereof selected to search for more functionally reinforced compositions based on the candidate substances and the lowest effective concentrations confirmed to induce the reinforced functions of stem cells were set as shown in Table 1. Mesenchymal stem cells were treated with the candidate combinations described in Table 1 below for 24 hours, and the stem cells were cultured as in Example 1, and then total RNA was isolated using TRIzol (Invitrogen). Then, qRT-PCR was performed by synthesizing cDNA from total RNA using the PrimeScript™ RT reagent Kit with gDNA Eraser (TaKaRa).
Vitamins were known to improve the proliferative ability of stem cells and maintain the stemness of stem cells when added during a stem cell culture process. Accordingly, various vitamins were treated in the stem cell culture process, and experiments were performed to confirm whether or not vitamins could achieve anti-inflammatory and immune function reinforcing effects of stem cells. Specifically, the stem cells were treated with various types of vitamins shown in Table 2 according to the method described in Example 1, and the results of confirming changes in expression of IDO and TSG6 according to treatment with each candidate substance were illustrated in FIG. 5.

Row | Substance | expression of IDO and TSG6 compared to untreated control group 0 | lowest effective concentration capable of inducing significantly increased expression of both TSG6 and IDO
1 | IFN-γ: cytokine, primary candidate substance for priming stem cells, 10 ng/ml | increased expression of IDO and TSG6 | 10 ng/mL
2 | IFN-α | increased expression of IDO and TSG6 | 20 ng/mL
3 | TNF-α | increased expression of IDO and TSG6 | 10 ng/mL
